Test results reported in ChEMBL document CHEMBL4387751, “Development of substituted pyrido[3,2-d]pyrimidines as potent and selective dihydrofolate reductase inhibitors for pneumocystis pneumonia infection” (Bioorg Med Chem Lett, 2019).

How the values were obtained:
[1] = system: DHFR (human versus Pneumocystis jirovecii); test: Selectivity ratio of IC50 for inhibition of recombinant human DHFR using 9 uM DHFA as substrate to IC50 for inhibition of Pneumocystis jirovecii DHFR using 9 uM DHFA as substrate; assay type: toxicity; details: recombinant human DHFR and Pneumocystis jirovecii DHFR, probe DHFA (substrate), read-out: Ratio IC50
Dihydrofolate reductase [2] = molecular target: T1, Dihydrofolate reductase (Homo sapiens, UniProt P00374); test: Inhibition of recombinant human DHFR assessed as reduction in consumption of NADPH using 9 uM DHFA as substrate
T1 sequence (P00374 whole entry): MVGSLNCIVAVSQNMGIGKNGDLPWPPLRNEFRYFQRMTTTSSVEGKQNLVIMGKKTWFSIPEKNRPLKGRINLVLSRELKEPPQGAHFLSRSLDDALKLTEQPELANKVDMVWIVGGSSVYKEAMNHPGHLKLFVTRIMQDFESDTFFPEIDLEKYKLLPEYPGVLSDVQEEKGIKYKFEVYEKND

[3] = Inhibition of Pneumocystis jirovecii DHFR expressed in Escherichia coli Rosetta-gami B (DE3) assessed as reduction in consumption of NADPH using 9 uM DHFA as substrate
[4] = system: DHFR (human versus Pneumocystis jirovecii); test: Selectivity ratio of IC50 for inhibition of recombinant human DHFR using 18 uM DHFA as substrate to IC50 for inhibition of Pneumocystis jirovecii DHFR using 18 uM DHFA as substrate; assay type: toxicity; details: recombinant human DHFR and Pneumocystis jirovecii DHFR, probe DHFA (substrate), read-out: Ratio IC50
[5] = Inhibition of Pneumocystis jirovecii DHFR expressed in Escherichia coli Rosetta-gami B (DE3) assessed as reduction in consumption of NADPH using 18 uM DHFA as substrate
Dihydrofolate reductase [6] = molecular target: T2, Dihydrofolate reductase (Rattus norvegicus, UniProt Q920D2); test: Inhibition of rat liver DHFR assessed as reduction in consumption of NADPH using DHFA as substrate
T2 sequence (Q920D2 whole entry): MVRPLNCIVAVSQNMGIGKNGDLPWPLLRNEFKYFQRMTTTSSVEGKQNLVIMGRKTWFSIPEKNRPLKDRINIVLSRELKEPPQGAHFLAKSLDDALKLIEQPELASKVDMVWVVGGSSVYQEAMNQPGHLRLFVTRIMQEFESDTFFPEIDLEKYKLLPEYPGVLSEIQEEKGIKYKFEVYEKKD

[7] = Inhibition of Pneumocystis carinii DHFR expressed in Escherichia coli Rosetta-gami B (DE3) assessed as reduction in consumption of NADPH using DHFA as substrate

Compound: Nc1nc(N)c2nc(Nc3ccc4ccccc4c3)ccc2n1
- selectivity ratio [1]: 12
- IC50 (Dihydrofolate reductase [2]): 3180 nM
- IC50 [3]: 275 nM

Compound: Nc1nc(N)c2nc(Nc3ccccc3)ccc2n1
- selectivity ratio [1]: 13
- IC50 (Dihydrofolate reductase [2]): 1530 nM
- IC50 [3]: 122 nM

Compound: COc1ccc(Nc2ccc3nc(N)nc(N)c3n2)cc1
- IC50 (Dihydrofolate reductase [2]): 2460 nM
- IC50 [3]: 239 nM

Compound: Nc1nc(N)c2cc(Nc3ccccc3)cnc2n1
- selectivity ratio [4]: < 1
- IC50 [5]: 300 nM

Compound: COc1ccc(Nc2cnc3nc(N)nc(N)c3c2)cc1
- IC50 [5]: 400 nM

Compound: Cc1ccc(Nc2cnc3nc(N)nc(N)c3c2)cc1
- selectivity ratio [4]: 3
- IC50 [5]: 620 nM

Compound: Nc1nc(N)c2cc(Nc3ccc4ccccc4c3)cnc2n1
- selectivity ratio [4]: 5
- IC50 [5]: 400 nM

Compound: Nc1nc(N)c2cc(Nc3cccc4ccccc34)cnc2n1
- selectivity ratio [4]: 8
- IC50 [5]: 250 nM

Compound: Nc1nc(N)c2cc(Nc3cc(F)c(F)c(F)c3)cnc2n1
- selectivity ratio [4]: 4
- IC50 [5]: 870 nM

Compound: COc1ccc(OC)c(NCc2cnc3nc(N)nc(N)c3c2)c1
- IC50 (Dihydrofolate reductase [6]): 500 nM

Compound: CCCCN(c1ccccc1)c1ccc2nc(N)nc(N)c2n1
- IC50 [3]: 66 nM

Compound: Nc1nc(N)c2nc(Nc3cccc4ccccc34)ccc2n1
- selectivity ratio [1]: 10
- IC50 (Dihydrofolate reductase [2]): 1100 nM
- IC50 [3]: 112 nM

Compound: Cc1ccc(Nc2ccc3nc(N)nc(N)c3n2)cc1
- selectivity ratio [1]: 15
- IC50 (Dihydrofolate reductase [2]): 2630 nM
- IC50 [3]: 174 nM

Compound: Nc1nc(N)c2nc(Nc3ccc(F)c(F)c3)ccc2n1
- selectivity ratio [1]: 28
- IC50 (Dihydrofolate reductase [2]): 2250 nM
- IC50 [3]: 80 nM

Compound: Nc1nc(N)c2nc(Nc3cc(F)c(F)c(F)c3)ccc2n1
- selectivity ratio [1]: 12
- IC50 [3]: 155 nM

Compound: CCN(c1ccccc1)c1ccc2nc(N)nc(N)c2n1
- IC50 [3]: 150 nM

Compound: Nc1nc(N)c2nc(Nc3ccc(O)cc3)ccc2n1
- selectivity ratio [1]: 10
- IC50 (Dihydrofolate reductase [2]): 1580 nM
- IC50 [3]: 150 nM

Compound: COc1ccc(OC)c(NCc2ccc3nc(N)nc(N)c3n2)c1
- IC50 [7]: 1400 nM

Compound: COc1cc(NCc2ccc3nc(N)nc(N)c3c2C)cc(OC)c1OC [TRIMETREXATE]
- IC50 [5]: 2.1 nM
